Source: ChEMBL document CHEMBL5584299, “Undobolins A-L, Ophiobolin-Type Sesterterpenoids from Aspergillus undulatus” (J Nat Prod, 2024)

Legend:
Splenocyte [1] = test: Immunosuppressive activity in BALB/c mouse splenocytes assessed as inhibition of LPS-induced B cell proliferation incubated for 48 hrs by CCK-8 assay; format: functional, cell-based
Splenocyte [2] = test: Immunosuppressive activity in BALB/c mouse splenocytes assessed as inhibition of ConA-induced T cell proliferation incubated for 48 hrs by CCK-8 assay; format: functional, cell-based
RAW264.7 = test: Antiinflammatory activity against mouse RAW264.7 cells assessed as reduction of LPS-induced NO production preincubated for 2 hrs followed by LPS-stimulation and measured after 12 hrs by Griess reagent assay; format: functional, cell-based
[3] = target: T1, 3-hydroxy-3-methylglutaryl-coenzyme A reductase (Homo sapiens, UniProt P04035); test: Inhibition of human HMGR
T1 sequence (P04035 whole entry): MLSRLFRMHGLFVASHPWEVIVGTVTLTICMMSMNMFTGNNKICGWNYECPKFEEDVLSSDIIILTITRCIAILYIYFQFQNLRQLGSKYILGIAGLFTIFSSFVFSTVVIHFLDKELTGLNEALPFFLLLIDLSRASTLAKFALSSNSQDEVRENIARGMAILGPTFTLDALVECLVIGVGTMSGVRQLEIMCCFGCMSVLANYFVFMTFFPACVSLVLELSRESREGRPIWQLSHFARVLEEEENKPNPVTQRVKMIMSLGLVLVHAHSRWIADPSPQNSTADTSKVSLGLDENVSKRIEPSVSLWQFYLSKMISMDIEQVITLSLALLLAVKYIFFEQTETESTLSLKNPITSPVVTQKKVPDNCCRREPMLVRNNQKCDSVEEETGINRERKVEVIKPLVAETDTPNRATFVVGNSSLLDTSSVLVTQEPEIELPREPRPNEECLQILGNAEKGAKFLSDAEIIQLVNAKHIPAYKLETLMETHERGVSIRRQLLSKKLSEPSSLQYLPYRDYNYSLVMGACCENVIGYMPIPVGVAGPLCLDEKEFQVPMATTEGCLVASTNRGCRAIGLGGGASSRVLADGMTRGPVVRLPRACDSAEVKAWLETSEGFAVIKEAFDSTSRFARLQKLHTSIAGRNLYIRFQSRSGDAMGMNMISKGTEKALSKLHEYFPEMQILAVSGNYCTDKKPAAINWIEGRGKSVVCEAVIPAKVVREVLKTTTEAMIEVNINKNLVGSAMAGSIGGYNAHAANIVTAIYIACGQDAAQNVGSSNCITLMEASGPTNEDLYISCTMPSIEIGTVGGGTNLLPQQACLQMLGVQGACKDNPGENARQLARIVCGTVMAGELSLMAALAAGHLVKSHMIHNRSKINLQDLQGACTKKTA

Candida albicans = test: Antifungal activity against Candida albicans ATCC10231 assessed as reduction in microbial growth incubated for 16 hrs by broth microdilution method; format: functional

C=C1[C@H]2CC[C@@](C)(O)[C@H]2C[C@@]2(C)CC[C@H]([C@@H](C)CC/C=C(\C)CO)[C@@H]2C[C@@H]1O
IC50 (Splenocyte [1]): 19.4 µM
IC50 (Splenocyte [2]): > 40 µM
IC50 (RAW264.7): > 40 µM

C/C1=C/C[C@H]2[C@@H]([C@@H](C)CC/C=C(\C)CO)CC[C@]2(C)C[C@@]2(O)[C@H](C)CC[C@H]12
IC50 (Splenocyte [1]): > 40 µM
IC50 (Splenocyte [2]): 2.29 µM
IC50 (RAW264.7): > 40 µM

C=C1[C@H]2[C@@H](O)C[C@@](C)(O)[C@H]2C[C@@]2(C)CC[C@H]([C@@H](C)CC/C=C(\C)C(=O)O)[C@@H]2C[C@@H]1O
IC50 (Splenocyte [1]): > 40 µM
IC50 (Splenocyte [2]): > 40 µM
IC50 (RAW264.7): > 40 µM

CC(C)=C/C=C\[C@H](C)[C@H]1CC[C@]2(C)C[C@@H]3C(C)=CC(=O)[C@H]3[C@H](CO)CC[C@@H]12
IC50 (Splenocyte [1]): > 40 µM
IC50 (Splenocyte [2]): > 40 µM
IC50 (RAW264.7): 8.31 µM

CC(C)=C/C=C\[C@H](C)[C@H]1CC[C@]2(C)C[C@@]3(O)[C@H](C)C[C@@H](O)[C@@H]3/C(CO)=C\C[C@@H]12
IC50 (Splenocyte [1]): > 40 µM
IC50 (Splenocyte [2]): 35.8 µM
IC50 (RAW264.7): > 40 µM

CC(C)=C/C=C\[C@H](C)[C@H]1CC[C@]2(C)C[C@@]3(O)[C@H](C)CC[C@@H]3/C(CO)=C\C[C@@H]12
IC50 (Splenocyte [1]): > 40 µM
IC50 (Splenocyte [2]): 15.6 µM
IC50 (RAW264.7): > 40 µM

CC(C)=C/C=C\[C@H](C)[C@H]1CC[C@]2(C)C[C@@H]3C(=O)C=C4C3=C(CC[C@@H]12)C(=O)N4CCO
IC50 (Splenocyte [1]): 25.4 µM
IC50 (Splenocyte [2]): > 40 µM
IC50 (RAW264.7): > 40 µM

C=C1[C@H]2[C@H](O)C[C@@](C)(O)[C@H]2C[C@@]2(C)CC[C@H]([C@@H](C)CC/C=C(\C)C(=O)O)[C@@H]2C[C@@H]1O
IC50 (Splenocyte [1]): > 40 µM
IC50 (Splenocyte [2]): 10.8 µM
IC50 (RAW264.7): > 40 µM

CC1=CC(=O)[C@H]2/C(CO)=C\C[C@H]3[C@@H]([C@@H](C)/C=C\[C@@H]4OC4(C)C)CC[C@]3(C)C[C@H]12
IC50 (Splenocyte [1]): > 40 µM
IC50 (Splenocyte [2]): > 40 µM
IC50 (RAW264.7): > 40 µM

CC(C)=C[C@H]1C[C@H](C)[C@]2(CC[C@]3(C)C[C@@H]4C(=O)C=C5C4=C(CC[C@H]32)C(=O)N5CCO)O1
IC50 [3]: 2.5 µM
MIC (Candida albicans): 4 µg/mL

CC(C)=CCC[C@H](C)[C@H]1CC[C@]2(C)C[C@@]3(O)[C@H](C)CC[C@@H]3/C(CO)=C\C[C@@H]12
IC50 (Splenocyte [1]): > 40 µM
IC50 (Splenocyte [2]): > 40 µM
IC50 (RAW264.7): > 40 µM

CC(C)=C/C=C/[C@H](C)[C@H]1CC[C@]2(C)C[C@@]3(O)[C@H](C)C[C@@H](O)[C@@H]3/C(CO)=C\C[C@@H]12
IC50 (Splenocyte [1]): > 40 µM
IC50 (Splenocyte [2]): > 40 µM
IC50 (RAW264.7): > 40 µM

CC1=CC(=O)/C2=C(\CO)CC[C@H]3[C@@H]([C@@H](C)CC/C=C(\C)C(=O)O)CC[C@]3(C)C[C@H]12
IC50 (Splenocyte [1]): > 40 µM
IC50 (Splenocyte [2]): > 40 µM
IC50 (RAW264.7): > 40 µM

C[C@@H]1C[C@H]2[C@@H]3CCC4=CC(=O)C=C[C@]4(C)[C@@]3(F)[C@@H](O)C[C@]2(C)[C@@]1(O)C(=O)CO [DEXAMETHASONE]
IC50 (Splenocyte [1]): 0.47 µM
IC50 (Splenocyte [2]): 0.04 µM
